{"source": "paper PMC12207590", "about": "“Substrate Specificity of the Organic Cation Transporters MATE1 and MATE2K and Functional Overlap with OCT1 and OCT2” (Journal of Medicinal Chemistry, 2025)", "key": {"MATE1 [1]": {"target": "T1, MATE1 (Homo sapiens, UniProt Q96FL8)", "T1 sequence (Q96FL8 1-570)": "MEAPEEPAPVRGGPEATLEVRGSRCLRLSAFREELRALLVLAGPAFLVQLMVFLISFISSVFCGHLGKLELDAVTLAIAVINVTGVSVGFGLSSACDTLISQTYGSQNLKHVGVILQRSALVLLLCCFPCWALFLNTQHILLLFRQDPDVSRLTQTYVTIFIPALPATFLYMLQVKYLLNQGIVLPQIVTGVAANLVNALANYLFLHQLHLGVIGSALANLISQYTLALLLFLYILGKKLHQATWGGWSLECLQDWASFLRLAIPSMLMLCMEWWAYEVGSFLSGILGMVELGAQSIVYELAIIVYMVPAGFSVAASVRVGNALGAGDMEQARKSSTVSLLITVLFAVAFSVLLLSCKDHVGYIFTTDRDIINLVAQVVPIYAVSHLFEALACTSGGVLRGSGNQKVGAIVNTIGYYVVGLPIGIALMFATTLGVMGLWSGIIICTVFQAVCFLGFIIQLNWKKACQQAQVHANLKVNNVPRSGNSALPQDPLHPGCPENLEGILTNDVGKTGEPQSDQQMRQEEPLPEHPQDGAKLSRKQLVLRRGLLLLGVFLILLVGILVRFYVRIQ", "experiment": "Uptake ratio in MATE1-overexpressing HEK293 cells vs empty vector (2.5 μM, 1 min, HPLC-MS/MS)", "format": "cell-based"}, "MATE2K [2]": {"target": "T2, MATE2K (Homo sapiens, UniProt Q86VL8)", "T2 sequence (Q86VL8 1-566 isoform Q86VL8-3)": "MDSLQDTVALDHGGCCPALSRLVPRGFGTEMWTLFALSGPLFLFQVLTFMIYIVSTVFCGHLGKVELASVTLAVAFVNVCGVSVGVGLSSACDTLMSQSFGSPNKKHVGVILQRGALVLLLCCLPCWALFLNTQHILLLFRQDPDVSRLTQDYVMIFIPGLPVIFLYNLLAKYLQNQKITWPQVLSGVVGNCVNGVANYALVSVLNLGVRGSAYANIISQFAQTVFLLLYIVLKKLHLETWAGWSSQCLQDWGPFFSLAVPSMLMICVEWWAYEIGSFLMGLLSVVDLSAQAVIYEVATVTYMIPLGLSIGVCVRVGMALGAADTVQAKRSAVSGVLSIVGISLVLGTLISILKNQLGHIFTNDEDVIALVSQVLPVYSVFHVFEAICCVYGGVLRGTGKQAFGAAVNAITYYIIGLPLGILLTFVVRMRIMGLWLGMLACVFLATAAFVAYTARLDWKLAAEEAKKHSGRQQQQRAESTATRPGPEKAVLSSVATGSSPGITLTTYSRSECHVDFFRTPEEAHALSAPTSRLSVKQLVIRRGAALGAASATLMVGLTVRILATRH", "experiment": "Uptake ratio in MATE2K-overexpressing HEK293 cells vs empty vector (2.5 μM, 1 min, HPLC-MS/MS)", "format": "cell-based", "conditions": "for MATE2K ratio: fold uptake over empty vector"}, "[3]": {"system": "MATE1, MATE2K, OCT1, OCT2", "experiment": "Substrate specificity and overlap among the four transporters (ratio cutoff 2)", "format": "cell-based, human", "conditions": "transport ratio cutoff of 2"}, "[4]": {"conditions": "human; cited from earlier work"}, "MATE1 [5]": {"target": "T1, MATE1", "experiment": "Concentration-dependent uptake (Michaelis-Menten) via MATE1 in HEK293 cells", "conditions": "HEK293, 1 min, net uptake; for Km: read-out: MATE1 KM"}, "MATE2K [6]": {"target": "T2, MATE2K", "experiment": "Concentration-dependent uptake (Michaelis-Menten) via MATE2K in HEK293 cells", "conditions": "HEK293, 1 min, net uptake; for Km: read-out: MATE2K KM"}, "hCMEC [7]": {"system": "hCMEC", "experiment": "TS DPH hCMEC (Table S2)", "format": "cell-based, human", "design": "scale not given here"}, "hCMEC [8]": {"system": "hCMEC", "experiment": "TS MDAI hCMEC (Table S2)", "format": "cell-based, human", "design": "scale not given here"}, "[9]": {"conditions": "uptake ratio MATE1-overexpressing vs empty-vector HEK293 cells, 2.5 μM, 1 min, mean"}, "[10]": {"conditions": "uptake ratio MATE2K-overexpressing vs empty-vector HEK293 cells, 2.5 μM, 1 min, mean"}, "[11]": {"conditions": "fold uptake over empty vector, 2.5 μM, 1 min"}}, "note": "Like-named read-outs stand apart in the source and are kept apart here."}
{"smiles": "COc1cc(Cc2cnc(N)nc2N)cc(OC)c1OC", "note": "[trimethoprim]", "values": [{"measurement": "MATE1", "setting": "MATE1 [1]; [9]", "value": 1.52}, {"measurement": "MATE2", "setting": "MATE2K [2]; [10]", "value": 1.23}, {"measurement": "Substrate specificity among MATE1, MATE2K, OCT1, OCT2", "setting": "[3]", "value": "OCT1 only"}]}
{"smiles": "CC[C@@]1(O)C(=O)OCc2c1cc1n(c2=O)Cc2cc3c(CN(C)C)c(O)ccc3nc2-1", "note": "[Topotecan]", "values": [{"measurement": "MATE1 ratio in this study", "setting": "MATE1 [1]; Table S1, 2.5 μM, 1 min", "value": 2.53}, {"measurement": "MATE1", "setting": "MATE1 [1]; [9]", "value": 2.53}, {"measurement": "MATE2K ratio in this study", "setting": "MATE2K [2]; Table S1, 2.5 μM, 1 min", "value": 1.61}, {"measurement": "MATE2", "setting": "MATE2K [2]; [10]", "value": 1.61}, {"measurement": "Substrate specificity among MATE1, MATE2K, OCT1, OCT2", "setting": "[3]", "value": "MATE1 only"}]}
{"smiles": "CC[N+](CC)(CC)CC(=O)Nc1c(C)cccc1C", "note": "[N-Ethyl-lidocaine]", "values": [{"measurement": "MATE1 ratio", "setting": "MATE1 [1]; [11]", "value": 36.39}, {"measurement": "MATE2K ratio", "setting": "MATE2K [2]; 2.5 μM, 1 min", "value": 14.68}, {"measurement": "Substrate specificity among MATE1, MATE2K, OCT1, OCT2", "setting": "[3]", "value": "All four transporters"}]}
{"smiles": "COc1cc(C(O)CN)ccc1O", "note": "(centres unmarked) [Normetanephrine]", "values": [{"measurement": "MATE1 ratio", "setting": "MATE1 [1]; [11]", "value": 1.80}, {"measurement": "MATE2K ratio", "setting": "MATE2K [2]; 2.5 μM, 1 min", "value": 0.82}, {"measurement": "Substrate specificity among MATE1, MATE2K, OCT1, OCT2", "setting": "[3]", "value": "OCT1 only"}]}
{"smiles": "NC(N)=Nc1nc(CSCCC(N)=NS(N)(=O)=O)cs1", "note": "[Famotidine]", "values": [{"measurement": "eliminated unchanged via the kidneys", "setting": "[4]", "value": "more than 70%"}]}
{"smiles": "Cc1ncc(CO)c(CN)c1O", "note": "[Pyridoxamine]", "values": [{"measurement": "MATE1 ratio", "setting": "MATE1 [1]; [11]", "value": 2.68}, {"measurement": "MATE1", "setting": "MATE1 [1]; [9]", "value": 2.68}, {"measurement": "MATE2K ratio", "setting": "MATE2K [2]; 2.5 μM, 1 min", "value": 1.36}, {"measurement": "MATE2", "setting": "MATE2K [2]; [10]", "value": 1.36}, {"measurement": "Substrate specificity among MATE1, MATE2K, OCT1, OCT2", "setting": "[3]", "value": "MATE1 only"}, {"measurement": "MATE1 Vmax", "setting": "MATE1 [5]", "value": "5442 pmol × mg protein^–1 × min^–1"}, {"measurement": "Km", "setting": "MATE1 [5]", "value": 1690, "unit": "µM"}, {"measurement": "MATE2K Vmax", "setting": "MATE2K [6]", "value": "989.5 pmol × mg protein^–1 × min^–1"}, {"measurement": "Km", "setting": "MATE2K [6]", "value": 1550, "unit": "µM"}]}
{"smiles": "COC(=O)C(c1ccccc1)C1CCCCN1", "note": "(centres unmarked) [Methylphenidate]", "values": [{"measurement": "TS DPH hCMEC", "setting": "hCMEC [7]", "value": 0.33}, {"measurement": "TS MDAI hCMEC", "setting": "hCMEC [8]", "value": 0.24}, {"measurement": "Substrate specificity among MATE1, MATE2K, OCT1, OCT2", "setting": "[3]", "value": "OCT2 only"}]}
{"smiles": "CNC[C@H](O)c1cccc(O)c1", "note": "[Phenylephrine]", "values": [{"measurement": "MATE1 ratio", "setting": "MATE1 [1]; [11]", "value": 13.78}, {"measurement": "MATE2K ratio", "setting": "MATE2K [2]; 2.5 μM, 1 min", "value": 1.75}, {"measurement": "TS DPH hCMEC", "setting": "hCMEC [7]; Table S2", "value": 0.76}, {"measurement": "TS MDAI hCMEC", "setting": "hCMEC [8]; Table S2", "value": 1.03}, {"measurement": "MATE1 Vmax", "setting": "MATE1 [5]", "value": "11,611 pmol × mg protein^–1 × min^–1"}, {"measurement": "Km", "setting": "MATE1 [5]", "value": 474, "unit": "µM"}, {"measurement": "MATE2K Vmax", "setting": "MATE2K [6]", "value": "776 pmol × mg protein^–1 × min^–1"}, {"measurement": "Km", "setting": "MATE2K [6]", "value": 434, "unit": "µM"}]}
{"smiles": "C[C@H](N)[C@@H](O)c1ccccc1", "note": "[Cathine]", "values": [{"measurement": "TS DPH hCMEC", "setting": "hCMEC [7]", "value": 0.35}, {"measurement": "Substrate specificity among MATE1, MATE2K, OCT1, OCT2", "setting": "[3]", "value": "OCT2 only"}]}
{"smiles": "C=CCN1CCCC1CNC(=O)c1cc2nn[nH]c2cc1OC", "note": "(centres unmarked) [Alizapride]", "values": [{"measurement": "MATE1 ratio", "setting": "MATE1 [1]; [11]", "value": 3.68}, {"measurement": "MATE1 ratio", "setting": "MATE1 [1]; fold uptake over empty vector, 2.5 μM, 1 min, listed as alizapride", "value": "above 2"}, {"measurement": "MATE1 (uptake ratio)", "setting": "MATE1 [1]; mean ratio of uptake in MATE1-overexpressing HEK293 cells vs empty vector, 2.5 μM, 1 min", "value": 3.68}, {"measurement": "MATE2K ratio", "setting": "MATE2K [2]; 2.5 μM, 1 min", "value": 2.64}, {"measurement": "MATE2 (uptake ratio)", "setting": "MATE2K [2]; mean ratio of uptake in MATE2K-overexpressing HEK293 cells vs empty vector, 2.5 μM, 1 min", "value": 2.64}, {"measurement": "eliminated unchanged via the kidneys", "setting": "[4]", "value": "more than 70%"}]}
{"smiles": "CN[C@@H]1CCc2[nH]c3ccc(C(N)=O)cc3c2C1", "note": "[Frovatriptan]", "values": [{"measurement": "MATE1 ratio", "setting": "MATE1 [1]; [11]", "value": 34.35}, {"measurement": "MATE2K ratio", "setting": "MATE2K [2]; 2.5 μM, 1 min", "value": 31.50}, {"measurement": "TS DPH hCMEC", "setting": "hCMEC [7]; Table S2", "value": 0.83}, {"measurement": "TS MDAI hCMEC", "setting": "hCMEC [8]; Table S2", "value": 0.88}, {"measurement": "Substrate specificity among MATE1, MATE2K, OCT1, OCT2", "setting": "[3]", "value": "All four transporters"}, {"measurement": "MATE1 Vmax", "setting": "MATE1 [5]", "value": "4568 pmol × mg protein^–1 × min^–1"}, {"measurement": "Km", "setting": "MATE1 [5]", "value": 70.4, "unit": "µM"}, {"measurement": "MATE2K Vmax", "setting": "MATE2K [6]", "value": "869 pmol × mg protein^–1 × min^–1"}, {"measurement": "Km", "setting": "MATE2K [6]", "value": 11.2, "unit": "µM"}]}
{"smiles": "O=C(O[C@H]1C[C@H]2CC[C@@H](C1)[N+]21CCCC1)C(O)(c1ccccc1)c1ccccc1", "note": "[Trospium]", "values": [{"measurement": "MATE1", "setting": "MATE1 [1]", "value": 21.28}, {"measurement": "MATE1 ratio", "setting": "MATE1 [1]", "value": "above 2"}, {"measurement": "MATE1 ratio in this study", "setting": "MATE1 [1]", "value": 21.28}, {"measurement": "MATE2", "setting": "MATE2K [2]", "value": 5.18}, {"measurement": "MATE2K ratio in this study", "setting": "MATE2K [2]", "value": 5.18}, {"measurement": "eliminated unchanged via the kidneys", "setting": "[4]", "value": "more than 70%"}]}
{"smiles": "Nc1ccncc1", "note": "[Fampridine (4-aminopyridine), 4-aminopyridine]", "values": [{"measurement": "Substrate specificity among MATE1, MATE2K, OCT1, OCT2", "setting": "[3]", "value": "OCT2 only"}]}
{"smiles": "CC(C)NCC(O)c1cc(O)cc(O)c1", "note": "(centres unmarked) [Orciprenaline]", "values": [{"measurement": "MATE1 ratio", "setting": "MATE1 [1]; [11]", "value": 34.88}, {"measurement": "MATE2K ratio", "setting": "MATE2K [2]; 2.5 μM, 1 min", "value": 23.10}, {"measurement": "Substrate specificity among MATE1, MATE2K, OCT1, OCT2", "setting": "[3]", "value": "All four transporters"}]}
